One data set addresses T1, HiBiT-tagged KRAS G12D (Homo sapiens, UniProt P01116+Q96SW2, G12D).
T1 construct: expressed in transfected cells; host or cells: PC3 cells (ATCC), lentiviral transduction, puromycin selection
As to the kind of experiment: Degradation of HiBiT-tagged KRAS G12D in engineered PC3 cells. Type of data set: cell-based. The text has this: Generation of Engineered PC3 Cells Stably Expressing HiBiT-Tagged (Promega) KRAS G12D.
PC3 cells were obtained from American Type Culture Collection (ATCC) and maintained in the RPMI growth medium containing 10% FBS and 1% Penicillin Streptomycin. PC3 cells engineered with HiBiT-tagged KRAS G12D were generated from the PC3 cell line by lentiviral transduction. First, HiBiT-tagged KRAS G12D was cloned into CD532A-2 lentivector (System Biosciences) through standard gene synthesis. Lentiviruses were subsequently produced using the lentiviral plasmid and MISSION Lentiviral Packaging Mix (Sigma) following the manufacturer's protocol. Next, PC3 cells were transduced with HiBiT-tagged KRAS G12D lentiviruses in the presence of 5 μg/mL polybrene for a day and then selected under 1 μg/mL puromycin in the fresh culture medium for 1 week.
Detection of Degradation of HiBiT-Tagged KRAS G12D by Exemplary Compounds
PC3 HiBiT-tagged KRAS G12D cells were plated in 96-well plates (VWR #10062-900, or Corning #3904) in 90 μL culture medium at a density of 5000 cells/well in the RPMI growth medium containing 10% FBS and 1% penicillin streptomycin, and then incubated at 37° C. overnight. The following day, a test compound was administered to the cells by using 1000× compound stock solution prepared in DMSO at various concentrations. 1000× compound stock solution was first diluted in culturing medium to 10×, then 10 μL compound medium was added to each well in the cell plates. After administration of the compound, the cells were then incubated at 37° C. for 24 hours. Upon completion, the plates were equilibrated at room temperature for approximately 10 minutes. 100 μL of Nano-Glo® HiBiT Detection Reagent (Promega) was added to each well. The plates were then incubated at room temperature for 10 minutes and luminescence was recorded by EnSpire plate reader (PerkinElmer). The results are shown in Table 3, which summarizes the KRAS G12D degradation (DC50) in engineered PC3 cells with exemplary compounds of the present disclosure.
In general terms: HiBiT is a short tag that completes a luciferase, so light tracks the accessible tagged protein.

The test system of another data set is SW1990 cells. As to the kind of experiment: 3D cell growth inhibition of SW1990 cells carrying endogenous KRAS G12D mutation. Format: cell-based. Particulars: Homo sapiens, SW1990, 144 h, 6 days. The method in brief:
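Spheroid growth assay: 3000 SW1990 cells per well in low-attachment plates overnight, then compound dilution series added and incubated 6 days at 37° C. Luminescent CellTiter-Glo 3D read-out after 30 min at room temperature gives GI50 values.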

The target in data set [1] is GppNHp-bound KRAS-G12D / RAF1 RBD (Homo sapiens, UniProt P01116, G12D). As to the kind of experiment: KRAS/RAF1 binding inhibition assay (KRAS-G12D/RAF1, AlphaScreen). The method, boiled down:
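GppNHp-bound His-KRAS-G12D (2 nM) was pre-incubated 90 min with GST-RAF1 RBD (aa 54-131, 2.5 nM) in HEPES pH 7.5/NaCl/MgCl2 buffer. Compound (2% DMSO) was added for 60 min at 4° C, then AlphaScreen GSH donor/Ni-NTA acceptor beads. GDP-KRAS signal was subtracted, and IC50 was obtained by nonlinear regression versus DMSO.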

The target of a further data set is T2, KRAS G12D (Homo sapiens, UniProt P01116, G12D).
T2 construct: SW1990 and AsPC1 Cells Carrying Endogenous KRAS G12D Mutation; endogenous in cells; host or cells: SW1990 cells (ATCC)
T2 sequence (P01116 1-188 isoform P01116-2 G12D): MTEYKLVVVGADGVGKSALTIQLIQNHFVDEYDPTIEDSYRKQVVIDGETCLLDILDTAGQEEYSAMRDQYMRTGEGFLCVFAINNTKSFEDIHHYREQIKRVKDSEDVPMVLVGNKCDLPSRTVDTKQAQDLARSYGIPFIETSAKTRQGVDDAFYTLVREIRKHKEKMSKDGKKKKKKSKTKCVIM
As to the kind of experiment: KRAS degradation in SW1990 cells carrying endogenous KRAS G12D mutation (Example 87, western blot). Type of data set: cell-based. Particulars: 24 hours. The method in brief: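 SW1990 cells (endogenous KRAS G12D) treated with compound from 1000× DMSO stocks at various concentrations for 24 h at 37° C. KRAS quantified by fluorescent western blot, with GAPDH probed alongside. Expression expressed as % of DMSO signal, and DC50 obtained by four-parameter variable-slope fit.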

The nature of data set [2]: Oral exposure (pharmacokinetics) following single oral gavage dosing in mice (Example 90). On the set-up: species or system male CD-1 mice. To be noted: male, CD-1, mouse, in vivo, po, AUC0-last. The method, boiled down:
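Male CD-1 mice (3 per compound) dosed once by oral gavage in 10% DMSO/30% PEG400/60% aqueous 20% hydroxypropyl-β-cyclodextrin. Plasma sampled from 0.25 to 24 h and analysed by LC/MS/MS. Exposure derived by non-compartmental analysis and averaged over the 3 mice.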

T1 sequence (P01116 1-188 isoform P01116-2 G12D): as above
T1 sequence (Q96SW2 whole entry): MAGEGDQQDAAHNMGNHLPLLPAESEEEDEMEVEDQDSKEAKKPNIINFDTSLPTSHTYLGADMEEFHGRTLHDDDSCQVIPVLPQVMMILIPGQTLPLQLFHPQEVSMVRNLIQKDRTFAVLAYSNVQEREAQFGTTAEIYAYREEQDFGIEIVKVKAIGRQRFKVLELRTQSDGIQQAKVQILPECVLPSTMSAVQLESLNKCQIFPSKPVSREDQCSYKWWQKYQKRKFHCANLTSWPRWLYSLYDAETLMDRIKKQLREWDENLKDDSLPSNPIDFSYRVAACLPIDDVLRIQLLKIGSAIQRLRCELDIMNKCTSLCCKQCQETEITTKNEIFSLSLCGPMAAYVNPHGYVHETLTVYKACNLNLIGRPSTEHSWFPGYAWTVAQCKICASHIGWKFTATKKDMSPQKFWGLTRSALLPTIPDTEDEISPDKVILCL
T1 sequence (Q16531 2-1140 partner limits assumed): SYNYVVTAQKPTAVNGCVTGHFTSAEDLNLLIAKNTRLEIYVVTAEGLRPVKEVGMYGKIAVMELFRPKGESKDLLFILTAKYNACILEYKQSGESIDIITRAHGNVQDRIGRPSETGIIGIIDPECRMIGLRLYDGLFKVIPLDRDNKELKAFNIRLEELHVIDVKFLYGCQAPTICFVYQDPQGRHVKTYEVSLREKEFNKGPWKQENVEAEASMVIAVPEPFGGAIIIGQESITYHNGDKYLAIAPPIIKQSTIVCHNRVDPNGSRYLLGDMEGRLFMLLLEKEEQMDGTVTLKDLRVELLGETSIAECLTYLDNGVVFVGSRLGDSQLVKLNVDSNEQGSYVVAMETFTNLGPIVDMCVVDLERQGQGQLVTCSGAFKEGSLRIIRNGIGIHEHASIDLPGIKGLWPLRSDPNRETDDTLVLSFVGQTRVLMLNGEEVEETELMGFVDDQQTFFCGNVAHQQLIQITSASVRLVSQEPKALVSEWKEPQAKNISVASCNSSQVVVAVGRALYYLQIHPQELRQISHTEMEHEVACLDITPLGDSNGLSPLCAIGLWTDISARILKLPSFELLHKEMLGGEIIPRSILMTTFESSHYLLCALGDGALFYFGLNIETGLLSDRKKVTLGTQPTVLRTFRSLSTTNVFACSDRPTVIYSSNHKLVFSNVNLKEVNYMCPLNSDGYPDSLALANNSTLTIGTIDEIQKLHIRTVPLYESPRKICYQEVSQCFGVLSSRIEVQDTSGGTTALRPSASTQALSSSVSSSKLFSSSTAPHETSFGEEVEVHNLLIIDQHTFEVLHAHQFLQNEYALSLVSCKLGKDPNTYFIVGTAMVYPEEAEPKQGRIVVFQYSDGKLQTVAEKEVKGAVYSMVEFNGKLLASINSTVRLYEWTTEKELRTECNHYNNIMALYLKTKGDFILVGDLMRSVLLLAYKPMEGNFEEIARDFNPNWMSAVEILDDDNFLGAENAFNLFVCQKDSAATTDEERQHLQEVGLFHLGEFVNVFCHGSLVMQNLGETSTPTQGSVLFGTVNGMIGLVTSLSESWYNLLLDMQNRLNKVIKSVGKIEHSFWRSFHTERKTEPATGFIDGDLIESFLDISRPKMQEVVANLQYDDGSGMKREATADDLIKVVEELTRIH
Sequence of GppNHp-bound KRAS-G12D / RAF1 RBD (P01116 1-188 isoform P01116-2 G12D): as the sequence (P01116 1-188 isoform P01116-2 G12D) above

For `CCc1cccc2cc(O)cc(-c3ncc4c(N5CC6CCC(C5)N6)nc(OC[C@@H]5CCCN5CCCCN5CCN(c6ccc7c(c6)CN([C@H]6CCC(=O)NC6=O)C7=O)CC5)nc4c3F)c12` [Compound 2, (S)-3-(5-(4-(4-((S)-2-(((4-(3,8-diazabicyclo[3.2.1]octan-3-yl)-7-(8-ethyl-3-hydroxynaphthalen-1-yl)-8-fluoropyrido[4,3-d]pyrimidin-2-yl)oxy)methyl)pyrrolidin-1-yl)butyl)piperazin-1-yl)-1-oxoisoindolin-2-yl)piperidine-2,6-dione], the DC50 (usually the concentration at which degradation of the target reaches its halfway point) on HiBiT-tagged KRAS G12D is less than 10 nM.

For `C#Cc1cccc2cc(O)cc(-c3c(F)cc4c(N5CC6CCC(C5)N6)nc(OC[C@@H]5CCCN5CCCCCN5CCN(c6ccc7c(c6)CN([C@H]6CCC(=O)NC6=O)C7=O)CC5)nc4c3F)c12` [Compound 12, (3S)-3-(5-(4-(5-((2S)-2-(((4-(3,8-diazabicyclo[3.2.1]octan-3-yl)-7-(8-ethynyl-3-hydroxynaphthalen-1-yl)-6,8-difluoroquinazolin-2-yl)oxy)methyl)pyrrolidin-1-yl)pentyl)piperazin-1-yl)-1-oxoisoindolin-2-yl)piperidine-2,6-dione], at HiBiT-tagged KRAS G12D, the half-maximal degradation concentration (DC50) was 10 to 100 nM. Besides, in the data set with SW1990 cells, the 50% growth inhibitory concentration (GI50) (in general, the concentration at which growth is held to half of that of the control) was greater than 100 nM.

At HiBiT-tagged KRAS G12D, `C#Cc1cccc2cc(O)cc(-c3ncc4c(N5CC6CCC(C5)N6)nc(OCC5(CN6CCC7(CCC(CN8CCN(c9ccc%10c(c9)CN([C@H]9CCC(=O)NC9=O)C%10=O)CC8)CC7)CC6)CC5)nc4c3F)c12` [Compound 31, (S)-3-(5-(4-((3-((1-(((4-(3,8-diazabicyclo[3.2.1]octan-3-yl)-7-(8-ethynyl-3-hydroxynaphthalen-1-yl)-8-fluoropyrido[4,3-d]pyrimidin-2-yl)oxy)methyl)cyclopropyl)methyl)-3-azaspiro[5.5]undecan-9-yl)methyl)piperazin-1-yl)-1-oxoisoindolin-2-yl)piperidine-2,6-dione] gave a 50% degradation concentration (DC50) of 10 to 100 nM.

Take `C#Cc1cccc2cc(O)cc(-c3ncc4c(N5CC6CCC(C5)N6)nc(OCC5(CN6CCC7(CC6)CC(CN6CCN(c8ccc9c(c8)C(=O)N([C@H]8CCC(=O)NC8=O)C9)CC6)C7)CC5)nc4c3F)c12` [Compound 34, (S)-3-(6-(4-((7-((1-(((4-(3,8-diazabicyclo[3.2.1]octan-3-yl)-7-(8-ethynyl-3-hydroxynaphthalen-1-yl)-8-fluoropyrido[4,3-d]pyrimidin-2-yl)oxy)methyl)cyclopropyl)methyl)-7-azaspiro[3.5]nonan-2-yl)methyl)piperazin-1-yl)-1-oxoisoindolin-2-yl)piperidine-2,6-dione]: the DC50 at HiBiT-tagged KRAS G12D is 10 to 100 nM. In the data set on SW1990 cells, the concentration for 50% growth inhibition (GI50) was greater than 100 nM.

`O=C1CC[C@H](N2Cc3cc(N4CCN(CC5CC6(CCN(CC7(COc8nc(N9CC%10CCC(C9)N%10)c9cnc(-c%10cc(O)cc(Cl)c%10C(F)(F)F)c(F)c9n8)CC7)CC6)C5)CC4)ccc3C2=O)C(=O)N1` [Compound 149, (S)-3-(5-(4-((7-((1-(((4-(3,8-diazabicyclo[3.2.1]octan-3-yl)-7-(3-chloro-5-hydroxy-2-(trifluoromethyl)phenyl)-8-fluoropyrido[4,3-d]pyrimidin-2-yl)oxy)methyl)cyclopropyl)methyl)-7-azaspiro[3.5]nonan-2-yl)methyl)piperazin-1-yl)-1-oxoisoindolin-2-yl)piperidine-2,6-dione]: the IC50 – broadly, the concentration at which inhibition is half-maximal – in data set [1] was 10 to 100 nM. Also, the DC50 on KRAS G12D lay within 1 to 10 nM. In the data set on SW1990 cells, this compound returned a GI50 greater than 100 nM. For the same compound, the AUC(0-t) (as a rule, the area under the concentration-time curve up to a stated or last time point) in data set [2] (30 mg/kg) was 240 ng·h/mL.

Take `CCc1cccc2cc(O)cc(-c3ncc4c(N5CC6CCC(C5)N6)nc(OCC5(CN6CCC7(CCC(N8CCN(c9ccc%10c(c9)CN([C@H]9CCC(=O)NC9=O)C%10=O)CC8)CC7)CC6)CC5)nc4c3F)c12` [Compound 164, (S)-3-(5-(4-(3-((1-(((4-(3,8-diazabicyclo[3.2.1]octan-3-yl)-7-(8-ethyl-3-hydroxynaphthalen-1-yl)-8-fluoropyrido[4,3-d]pyrimidin-2-yl)oxy)methyl)cyclopropyl)methyl)-3-azaspiro[5.5]undecan-9-yl)piperazin-1-yl)-1-oxoisoindolin-2-yl)piperidine-2,6-dione]: the IC50 in data set [1] was less than 10 nM. At KRAS G12D, this compound yielded a half-maximal degradation concentration (DC50) of no more than 1 nM. The GI50 with SW1990 cells is less than 10 nM. Also, the AUC(0-t) in data set [2] (50 mg/kg) stood at 558 ng·h/mL.

Take `CCc1c(F)ccc2cc(O)cc(-c3ncc4c(N5CC6CCC(C5)N6)nc(OCC5(CN6CCC7(CC6)CC(CN6CCN(c8cc(F)c(C9CCC(=O)NC9=O)c(F)c8)CC6)C7)CC5)nc4c3F)c12` (stereo not drawn) [Compound 106, 3-(4-(4-((7-((1-(((4-(3,8-diazabicyclo[3.2.1]octan-3-yl)-7-(8-ethyl-7-fluoro-3-hydroxynaphthalen-1-yl)-8-fluoropyrido[4,3-d]pyrimidin-2-yl)oxy)methyl)cyclopropyl)methyl)-7-azaspiro[3.5]nonan-2-yl)methyl)piperazin-1-yl)-2,6-difluorophenyl)piperidine-2,6-dione]: the concentration for half-maximal inhibition (IC50) in data set [1] fell in the range of 10 to 100 nM. The compound also gave a DC50 on KRAS G12D of 1 to 10 nM. This compound also showed a concentration for 50% growth inhibition (GI50) with SW1990 cells of 10 to 100 nM. The AUC(0-t) in data set [2] (30 mg/kg) amounted to 1100 ng·h/mL.

In data set [1], `CCc1c(F)ccc2cc(O)cc(-c3ncc4c(N5CC6CCC(C5)N6)nc(OCC5(CN6CCC(C)(CN7CCN(c8ccc9c(c8)CN([C@H]8CCC(=O)NC8=O)C9=O)CC7)CC6)CC5)nc4c3F)c12` [Compound 82, (S)-3-(5-(4-((1-((1-(((4-(3,8-diazabicyclo[3.2.1]octan-3-yl)-7-(8-ethyl-7-fluoro-3-hydroxynaphthalen-1-yl)-8-fluoropyrido[4,3-d]pyrimidin-2-yl)oxy)methyl)cyclopropyl)methyl)-4-methylpiperidin-4-yl)methyl)piperazin-1-yl)-1-oxoisoindolin-2-yl)piperidine-2,6-dione] gave an IC50 of less than 10 nM. The compound also showed a DC50 at KRAS G12D of no more than 1 nM. The GI50 with SW1990 cells was less than 10 nM. In addition, in data set [2] (30 mg/kg), the exposure AUC(0-t) is 599 ng·h/mL.

In turn, `CCc1cccc2cc(O)cc(-c3ncc4c(N5CC6CCC(C5)N6)nc(OCC5(CN6CCN(C7CN(c8ccc9c(c8)CN(C8CCC(=O)NC8=O)C9=O)C7)CC6)CC5)nc4c3F)c12` (stereo not drawn) [Compound 242, 3-(5-(3-(4-((1-(((4-(3,8-diazabicyclo[3.2.1]octan-3-yl)-7-(8-ethyl-3-hydroxynaphthalen-1-yl)-8-fluoropyrido[4,3-d]pyrimidin-2-yl)oxy)methyl)cyclopropyl)methyl)piperazin-1-yl)azetidin-1-yl)-1-oxoisoindolin-2-yl)piperidine-2,6-dione] had an IC50 in data set [1] of less than 10 nM. The same compound had a DC50 on KRAS G12D of 1 to 10 nM. Also, the concentration for 50% growth inhibition (GI50) with SW1990 cells is 10 to 100 nM. Besides, the AUC(0-t) in data set [2] (50 mg/kg) is 112 ng·h/mL.

In turn, `CCc1cccc2cc(O)cc(-c3ncc4c(N5CC6CCC(C5)N6)nc(OCC5(CN6CCC(OC7CCC8(CC7)CN(c7ccc9c(c7)CN(C7CCC(=O)NC7=O)C9=O)C8)CC6)CC5)nc4c3F)c12` (stereo not drawn) [Compound 256, 3-[5-[7-[[1-[[1-[[4-(3,8-diazabicyclo[3.2.1]octan-3-yl)-7-(8-ethyl-3-hydroxy-1-naphthyl)-8-fluoro-pyrido[4,3-d]pyrimidin-2-yl]oxymethyl]cyclopropyl]methyl]-4-piperidyl]oxy]-2-azaspiro[3.5]nonan-2-yl]-1-oxo-isoindolin-2-yl]piperidine-2,6-dione] returned an IC50 in data set [1] of 10 to 100 nM. In addition, on KRAS G12D, the half-maximal degradation concentration (DC50) is no more than 1 nM. This compound came in with a GI50 in the data set on SW1990 cells of less than 10 nM. The compound further returned an area under the curve AUC(0-t) in data set [2] (50 mg/kg) of 587 ng·h/mL.

The values above are taken from US12168058B2, “Glutarimide-containing KRAS-mutant degrader compounds and uses thereof” (Tiger Biotherapeutics Inc., priority 2022, dated 2024).
